Experimental data published in ChEMBL document CHEMBL4433195, “Biphenyloxy-alkyl-piperidine and azepane derivatives as histamine H3 receptor ligands” (Bioorg Med Chem, 2017).
One block for each molecule: values may come before it.

Tests used:
[1] = Mutagenicity in Salmonella typhimurium TA98 assessed as fold increase in number of positive wells over the solvent control baseline upto 10 uM incuabted for 90 mins and measured after 48 hrs by Ames test; assay type: toxicity; conditions: salmonella enterica subsp. enterica serovar typhimurium
Cytochrome P450 3A4 [2] = biological target: T1, Cytochrome P450 3A4 (Homo sapiens, UniProt P08684); assay: Activation of human recombinant CYP3A4 using luciferin as substrate at 12.5 to 25 uM preincubated for 10 mins followed by substrate addition and measured after 50 mins in presence of NADPH by CYP450-Glo assay; assay type: ADME; conditions: recombinant enzyme
T1 sequence (P08684 whole entry): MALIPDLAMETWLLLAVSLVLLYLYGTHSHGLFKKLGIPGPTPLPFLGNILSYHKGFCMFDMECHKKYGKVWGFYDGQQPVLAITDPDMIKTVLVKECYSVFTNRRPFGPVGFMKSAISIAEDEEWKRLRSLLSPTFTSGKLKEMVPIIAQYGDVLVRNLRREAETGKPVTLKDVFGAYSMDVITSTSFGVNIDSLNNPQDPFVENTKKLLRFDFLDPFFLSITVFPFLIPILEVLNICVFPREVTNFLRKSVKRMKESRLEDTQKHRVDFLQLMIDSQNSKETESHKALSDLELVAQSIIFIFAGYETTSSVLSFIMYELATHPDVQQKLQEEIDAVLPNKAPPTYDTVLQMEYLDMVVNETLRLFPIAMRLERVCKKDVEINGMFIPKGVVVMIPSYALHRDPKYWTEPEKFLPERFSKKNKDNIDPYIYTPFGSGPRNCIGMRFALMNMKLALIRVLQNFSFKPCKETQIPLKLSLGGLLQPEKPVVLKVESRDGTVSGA

[3] = biological target: T2, Voltage-gated inwardly rectifying potassium channel KCNH2 (Homo sapiens, UniProt Q12809)
T2 sequence (Q12809 whole entry): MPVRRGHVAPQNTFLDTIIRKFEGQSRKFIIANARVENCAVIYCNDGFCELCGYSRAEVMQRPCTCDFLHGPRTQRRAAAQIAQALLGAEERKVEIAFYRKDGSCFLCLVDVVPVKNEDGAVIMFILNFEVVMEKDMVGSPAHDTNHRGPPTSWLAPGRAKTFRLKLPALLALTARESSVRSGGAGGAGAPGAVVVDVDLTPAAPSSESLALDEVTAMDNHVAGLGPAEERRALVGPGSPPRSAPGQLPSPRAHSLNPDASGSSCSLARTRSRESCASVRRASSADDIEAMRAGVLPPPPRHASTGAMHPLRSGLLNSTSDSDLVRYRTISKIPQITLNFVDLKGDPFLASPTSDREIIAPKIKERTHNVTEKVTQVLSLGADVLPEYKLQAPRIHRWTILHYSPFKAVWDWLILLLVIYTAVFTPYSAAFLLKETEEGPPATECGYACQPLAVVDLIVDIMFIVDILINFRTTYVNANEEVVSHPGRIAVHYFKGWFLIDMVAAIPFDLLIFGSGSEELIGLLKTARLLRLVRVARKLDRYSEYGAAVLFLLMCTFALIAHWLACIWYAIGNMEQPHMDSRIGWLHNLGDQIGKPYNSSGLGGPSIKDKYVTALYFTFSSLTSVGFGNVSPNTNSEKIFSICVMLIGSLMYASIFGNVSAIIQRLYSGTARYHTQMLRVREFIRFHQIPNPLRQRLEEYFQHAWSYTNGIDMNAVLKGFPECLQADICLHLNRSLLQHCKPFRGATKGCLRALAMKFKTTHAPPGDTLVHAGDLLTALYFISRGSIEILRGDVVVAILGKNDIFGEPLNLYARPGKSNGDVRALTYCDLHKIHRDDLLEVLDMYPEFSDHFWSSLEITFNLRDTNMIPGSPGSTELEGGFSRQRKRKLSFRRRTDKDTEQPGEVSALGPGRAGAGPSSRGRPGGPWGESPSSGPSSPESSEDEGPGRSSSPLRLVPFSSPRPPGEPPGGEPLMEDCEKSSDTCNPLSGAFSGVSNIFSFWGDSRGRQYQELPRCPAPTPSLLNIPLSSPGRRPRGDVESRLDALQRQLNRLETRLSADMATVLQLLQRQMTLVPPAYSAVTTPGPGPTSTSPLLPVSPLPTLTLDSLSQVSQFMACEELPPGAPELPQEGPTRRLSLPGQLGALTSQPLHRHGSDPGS

[4] = Metabolic stability in human recombinant liver microsomes assessed as metabolite M2 formation at 50 uM preincubated for 5 mins followed by NADPH addition and measured after 120 mins by UPLC-MS analysis; assay type: ADME, Microsome; conditions: 2 h
Cytochrome P450 3A4 [5] = biological target: T1, Cytochrome P450 3A4; assay: Inhibition of human recombinant CYP3A4 using luciferin as substrate at 0.025 to 25 uM preincubated for 10 mins followed by substrate addition and measured after 50 mins in presence of NADPH by CYP450-Glo assay; assay type: ADME; conditions: recombinant enzyme
[6] = Metabolic stability in human recombinant liver microsomes assessed as retention time at 50 uM preincubated for 5 mins followed by NADPH addition and measured after 120 mins by UPLC-MS analysis; assay type: ADME, Microsome; conditions: 2 h
[7] = Ratio of test compound IC50 to doxorubicin IC50 for cytotoxicity against human HepG2 cells assessed as cell viability incubated for 72 hrs by cellTiter 96 AQueous non-radioactive cell proliferation assay; assay type: cell-based; conditions: read-out: Ratio IC50
HepG2 = assay: Cytotoxicity against human HepG2 cells assessed as cell viability incubated for 72 hrs by cellTiter 96 AQueous non-radioactive cell proliferation assay; assay type: cell-based; conditions: HepG2, 72 h
[8] = biological target: Muscarinic acetylcholine receptor M3 (Cavia porcellus) (UniProt Q8VH26); assay: Antagonist activity at muscarinic M3 receptor in guinea-pig ileum assessed as inhibition of carbachol-induced contractions incubated for 15 mins; assay type: tissue-based
Sequence of Muscarinic acetylcholine receptor M3 (Cavia porcellus) (Q8VH26 1-587): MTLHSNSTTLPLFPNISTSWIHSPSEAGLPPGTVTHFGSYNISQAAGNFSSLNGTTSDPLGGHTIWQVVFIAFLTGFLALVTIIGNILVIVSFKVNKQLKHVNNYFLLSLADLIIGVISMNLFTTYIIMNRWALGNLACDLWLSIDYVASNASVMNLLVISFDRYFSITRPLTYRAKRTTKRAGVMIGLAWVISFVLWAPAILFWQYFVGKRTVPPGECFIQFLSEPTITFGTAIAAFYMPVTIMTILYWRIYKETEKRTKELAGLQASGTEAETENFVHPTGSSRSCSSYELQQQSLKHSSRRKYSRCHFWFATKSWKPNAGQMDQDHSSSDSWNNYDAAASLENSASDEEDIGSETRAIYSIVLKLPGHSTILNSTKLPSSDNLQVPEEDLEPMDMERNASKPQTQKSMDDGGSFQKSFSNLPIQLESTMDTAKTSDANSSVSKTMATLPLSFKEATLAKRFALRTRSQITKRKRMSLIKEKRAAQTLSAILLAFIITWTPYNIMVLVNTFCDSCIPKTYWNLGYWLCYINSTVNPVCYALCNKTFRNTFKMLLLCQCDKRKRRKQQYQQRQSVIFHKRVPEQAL

[9] = Metabolic stability in human recombinant liver microsomes assessed as metabolite M1 formation at 50 uM preincubated for 5 mins followed by NADPH addition and measured after 120 mins by UPLC-MS analysis; assay type: ADME, Microsome; conditions: 2 h
Histamine H3 receptor [10] = biological target: T3, Histamine H3 receptor (Homo sapiens, UniProt Q9Y5N1); assay: Antagonist activity at human H3R expressed in HEK293 cells assessed as reduction in R)(-)-alpha methylhistamine-induced inhibition of forskolin-induced cAMP accumulation by TR-FRET based LANCE ultra cAMP immunoassay; assay type: functional, cell-based
T3 sequence (Q9Y5N1 whole entry): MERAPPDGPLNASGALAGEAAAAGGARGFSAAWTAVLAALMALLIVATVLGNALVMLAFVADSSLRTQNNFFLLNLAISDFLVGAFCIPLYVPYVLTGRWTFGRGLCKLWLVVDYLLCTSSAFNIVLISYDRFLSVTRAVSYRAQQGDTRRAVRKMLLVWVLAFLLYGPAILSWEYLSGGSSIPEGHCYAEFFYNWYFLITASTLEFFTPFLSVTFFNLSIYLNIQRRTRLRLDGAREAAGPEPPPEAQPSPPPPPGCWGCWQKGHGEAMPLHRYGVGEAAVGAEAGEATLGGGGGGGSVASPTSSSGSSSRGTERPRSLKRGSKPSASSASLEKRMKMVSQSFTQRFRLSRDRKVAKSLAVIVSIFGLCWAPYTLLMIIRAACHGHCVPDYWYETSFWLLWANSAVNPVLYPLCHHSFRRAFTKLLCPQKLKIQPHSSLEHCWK

Histamine H3 receptor [11] = biological target: T3, Histamine H3 receptor; assay: Displacement of [3H]-N-alpha-methylhistamine from human recombinant full length H3R expressed in HEK293 cell membranes incubated for 90 mins by liquid scintillation counting method
Rattus norvegicus [12] = species: Rattus norvegicus; assay: Reversal of RAMH-induced dipsogenia in Wistar rat (Krf:(WI) WU) assessed as inhibition of RAMH-induced drinking response pretreated for 30 mins followed by RAMH stimulation for 20 mins and measured for 30 mins; assay type: functional
[13] = Metabolic stability in human recombinant liver microsomes assessed as metabolite M formation at 50 uM preincubated for 5 mins followed by NADPH addition and measured after 120 mins by UPLC-MS analysis; assay type: ADME, Microsome; conditions: 2 h
Cytochrome P450 2D6 = Cytochrome P450 2D6 (Homo sapiens, UniProt P10635); assay: Inhibition of human recombinant CYP2D6 at >2.5 uM using luciferin as substrate preincubated for 10 mins followed by substrate addition and measured after 50 mins in presence of NADPH by CYP450-Glo assay; assay type: ADME; conditions: recombinant enzyme
Sequence of Cytochrome P450 2D6 (P10635 whole entry): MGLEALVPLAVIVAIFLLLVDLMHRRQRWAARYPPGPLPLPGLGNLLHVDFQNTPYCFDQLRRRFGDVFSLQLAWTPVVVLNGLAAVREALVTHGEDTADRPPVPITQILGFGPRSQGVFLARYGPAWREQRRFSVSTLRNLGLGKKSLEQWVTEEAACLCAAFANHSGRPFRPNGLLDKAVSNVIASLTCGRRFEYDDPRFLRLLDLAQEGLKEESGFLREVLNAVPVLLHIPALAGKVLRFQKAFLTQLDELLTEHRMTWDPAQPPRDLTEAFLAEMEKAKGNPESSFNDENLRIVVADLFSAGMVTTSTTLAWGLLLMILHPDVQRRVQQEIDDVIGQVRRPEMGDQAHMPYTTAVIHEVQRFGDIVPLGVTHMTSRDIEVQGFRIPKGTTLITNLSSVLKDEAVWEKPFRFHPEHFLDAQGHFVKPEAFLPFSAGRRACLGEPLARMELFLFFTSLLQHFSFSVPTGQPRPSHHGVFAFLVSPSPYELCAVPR

[14] = Metabolic stability in human recombinant liver microsomes assessed as metabolite M3 formation at 50 uM preincubated for 5 mins followed by NADPH addition and measured after 120 mins by UPLC-MS analysis; assay type: ADME, Microsome; conditions: 2 h
Histamine H1 receptor [15] = biological target: Histamine H1 receptor (Cavia porcellus, UniProt P31389); assay: (§1) Antagonist activity at histamine H1 receptor in guinea-pig ileum assessed as inhibition of histamine-induced contractions incubated for 15 mins; assay type: tissue-based; conditions: read-out: pA2 (converted)
Sequence of Histamine H1 receptor (Cavia porcellus, UniProt P31389) (P31389 whole entry): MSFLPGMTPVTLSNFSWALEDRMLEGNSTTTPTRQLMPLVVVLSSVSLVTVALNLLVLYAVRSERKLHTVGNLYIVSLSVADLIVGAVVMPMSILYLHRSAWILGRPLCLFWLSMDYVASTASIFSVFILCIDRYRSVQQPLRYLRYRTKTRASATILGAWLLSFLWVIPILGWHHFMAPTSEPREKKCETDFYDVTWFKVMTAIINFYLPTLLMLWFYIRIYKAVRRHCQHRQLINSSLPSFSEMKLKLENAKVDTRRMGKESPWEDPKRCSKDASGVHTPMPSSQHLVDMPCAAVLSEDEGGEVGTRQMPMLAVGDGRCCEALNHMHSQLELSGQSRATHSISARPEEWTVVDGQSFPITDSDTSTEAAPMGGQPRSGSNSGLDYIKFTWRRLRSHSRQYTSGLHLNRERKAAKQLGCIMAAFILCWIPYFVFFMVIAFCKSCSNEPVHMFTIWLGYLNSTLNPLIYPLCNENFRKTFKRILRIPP

[16] = biological target: Histamine H1 receptor (Cavia porcellus) (UniProt P31389); assay: as §1; assay type: tissue-based
Sequence of Histamine H1 receptor (Cavia porcellus) (P31389 whole entry): as above

Homo sapiens = species: Homo sapiens; assay: Selectivity ratio of Ki for human H4R to Ki for human H3R
[17] = Mutagenicity in Salmonella typhimurium TA100 assessed as fold increase in number of positive wells over the solvent control baseline upto 10 uM incuabted for 90 mins and measured after 48 hrs by Ames test; assay type: toxicity; conditions: salmonella enterica subsp. enterica serovar typhimurium
Histamine H4 receptor [18] = biological target: T4, Histamine H4 receptor (Homo sapiens, UniProt Q9H3N8); assay: Displacement of [3H]histamine from human recombinant H4R expressed in CHO cells incubated for 60 mins by microbeta scintillation counter method; assay type: cell-based
Histamine H3 receptor [19] = biological target: T3, Histamine H3 receptor; assay: Binding affinity to human H3R
Rattus norvegicus [20] = assay: Reversal of RAMH-induced dipsogenia in Wistar rat (Krf:(WI) WU) assessed as inhibition of RAMH-induced drinking response at 1.25 mg/kg, ip pretreated for 30 mins followed by RAMH stimulation for 20 mins and measured for 30 mins; assay type: functional
Histamine H4 receptor [21] = biological target: T4, Histamine H4 receptor; assay: Antagonist activity at human H4R expressed in HEK293 cells incubated for 20 mins by [35S]GTPgammaS binding assay; assay type: functional, cell-based
[22] = biological target: T2, Voltage-gated inwardly rectifying potassium channel KCNH2; assay: Displacement of [3H]Dofetilide from human ERG human expressed in HEK293 cells incubated for 45 mins; assay type: cell-based
[23] = Half life in rat liver microsomes measured up to 30 mins; assay type: ADME, Microsome
[24] = Metabolic stability in rat liver microsomes assessed as metabolite M2 formation at 50 uM preincubated for 5 mins followed by NADPH addition and measured after 30 mins UPLC-MS analysis; assay type: ADME, Microsome; conditions: 0.5 h
[25] = Metabolic stability in rat liver microsomes assessed as retention time at 50 uM preincubated for 5 mins followed by NADPH addition and measured after 30 mins UPLC-MS analysis; assay type: ADME, Microsome; conditions: 0.5 h
[26] = Metabolic stability in rat liver microsomes assessed as metabolite M1 formation at 50 uM preincubated for 5 mins followed by NADPH addition and measured after 30 mins UPLC-MS analysis; assay type: ADME, Microsome; conditions: 0.5 h
[27] = Intrinsic clearance in rat liver microsomes measured up to 30 mins; assay type: ADME, Microsome; conditions: read-out: CLH
[28] = Metabolic stability in rat liver microsomes assessed as metabolite M3 formation at 50 uM preincubated for 5 mins followed by NADPH addition and measured after 30 mins UPLC-MS analysis; assay type: ADME, Microsome; conditions: 0.5 h
Histamine H1 receptor [29] = biological target: Histamine H1 receptor (Homo sapiens, UniProt P35367); assay: Displacement of [3H]pyrilamine from human H1 receptor expressed in CHOK1 cells incubated for 60 mins by microbeta scintillation counter method; assay type: cell-based
Sequence of Histamine H1 receptor (Homo sapiens, UniProt P35367) (P35367 whole entry): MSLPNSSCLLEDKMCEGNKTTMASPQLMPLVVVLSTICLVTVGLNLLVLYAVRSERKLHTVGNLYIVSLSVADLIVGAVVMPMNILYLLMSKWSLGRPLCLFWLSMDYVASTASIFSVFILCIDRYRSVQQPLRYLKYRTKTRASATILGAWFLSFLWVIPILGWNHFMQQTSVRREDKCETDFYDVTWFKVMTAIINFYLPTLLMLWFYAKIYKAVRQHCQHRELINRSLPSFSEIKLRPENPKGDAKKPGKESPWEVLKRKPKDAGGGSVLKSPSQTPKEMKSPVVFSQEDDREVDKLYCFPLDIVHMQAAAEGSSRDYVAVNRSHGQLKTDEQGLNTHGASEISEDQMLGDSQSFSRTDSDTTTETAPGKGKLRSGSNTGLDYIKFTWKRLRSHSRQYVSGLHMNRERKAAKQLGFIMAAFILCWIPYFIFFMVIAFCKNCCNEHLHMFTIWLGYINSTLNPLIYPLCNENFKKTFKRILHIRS

Histamine H3 receptor [30] = biological target: T3, Histamine H3 receptor; assay: Binding affinity to human H3R expressed in rat C6 cells; assay type: cell-based
Histamine H4 receptor [31] = biological target: T4, Histamine H4 receptor; assay: Binding affinity to human H4R

Compound: O=C(O)C(=O)O.c1ccc(-c2ccc(OCCCCCN3CCCCC3)cc2)cc1
- fold change (FC) [1]: < 2
- Activity (Cytochrome P450 3A4 [2]): Active
- IC50 [3]: 1750 nM
- Drug metabolism [4]: Metabolite_Notdetected
- inhibition (INH) (Cytochrome P450 3A4 [5]): Not Active
- Retention_time [6]: 5.83 min
- selectivity ratio at 72 h [7]: > 30
- IC50 (HepG2): 17200 nM
- pKb [8]: 6.35
- Drug metabolism [9]: Metabolite_Notdetected
- Activity (Histamine H3 receptor [10]): Dose-dependent effect
- IC50 (Histamine H3 receptor [10]): 4.04 nM
- Ki (Histamine H3 receptor [11]): 25 nM
- ED50 (Rattus norvegicus [12]): 2.72 mg/kg
- inhibition (Rattus norvegicus [12]): Dose-dependent effect
- Drug metabolism [13]: Metabolite_Notdetected
- inhibition (INH) (Cytochrome P450 2D6): Active
- Drug metabolism [14]: Metabolite_Notdetected
- Kb (Histamine H1 receptor [15]): 295 nM
- Activity [16]: Dose-dependent effect
- Ratio Ki (Homo sapiens): 600
- fold change (FC) [17]: < 2
- Ki (Histamine H4 receptor [18]): 19900 nM

Compound: Clc1ccc(CCCOCCCN2CCCCC2)cc1 [PITOLISANT]
- IC50 [3]: 1700 nM
- inhibition in vivo at 1.25 mg/kg (Rattus norvegicus [20]): 87%

Compound: CN1[C@@H]2CC[C@H]1C[C@@H](OC(=O)C(CO)c1ccccc1)C2 (stereo partly drawn)
- pKb [8]: 8.99

Compound: c1ccc(-c2ccc(OCCCCCCN3CCCCCC3)cc2)cc1
- Ki (Histamine H3 receptor [11]): 151 nM

Compound: c1ccc(CN(CC2=NCCN2)c2ccccc2)cc1 [ANTAZOLINE]
- Kb (Histamine H1 receptor [15]): 72.4 nM

Compound: COc1cccc2c1C(=O)c1c(O)c3c(c(O)c1C2=O)C[C@@](O)(C(=O)CO)C[C@@H]3O[C@H]1C[C@H](N)[C@H](O)[C@H](C)O1 [DOXORUBICIN]
- IC50 (HepG2): 392 nM

Compound: O=C(O)C(=O)O.c1ccc(-c2ccc(OCCCCCN3CCCCCC3)cc2)cc1
- half-life [23]: 23.6 min
- Activity (Cytochrome P450 3A4 [2]): Active
- Drug metabolism [24]: Metabolite_Detected
- Retention_time [25]: 6 min
- Drug metabolism [26]: Metabolite_Detected
- CLint scaled [27]: 52.9 mL/min/kg
- Drug metabolism [4]: Metabolite_Detected
- inhibition (INH) (Cytochrome P450 3A4 [5]): Not Active
- Retention_time [6]: 6.08 min
- pKb [8]: 6.16
- Drug metabolism [9]: Metabolite_Detected
- Activity (Histamine H3 receptor [10]): Dose-dependent effect
- IC50 (Histamine H3 receptor [10]): 9.08 nM
- Ki (Histamine H3 receptor [11]): 34 nM
- ED50 (Rattus norvegicus [12]): 1.75 mg/kg
- inhibition (Rattus norvegicus [12]): Dose-dependent effect
- Drug metabolism [13]: Metabolite_Detected
- inhibition (INH) (Cytochrome P450 2D6): Active
- Drug metabolism [14]: Metabolite_Detected
- Kb (Histamine H1 receptor [15]): 724 nM
- Activity [16]: Dose-dependent effect
- Drug metabolism [28]: Metabolite_Detected
- Ki (Histamine H1 receptor [29]): 1270 nM
- Ki (Histamine H4 receptor [18]): 21800 nM

Compound: CC(C)(C)c1ccc(OCCCN2CCCCC2)cc1
- Ki (Histamine H3 receptor [11]): 131 nM

Compound: C[C@@H]1CC[C@@H](C)N1CCCOc1ccc(-c2ccc(C(=O)N3CCOCC3)cc2)cc1
- Ki (Histamine H3 receptor [30]): 0.42 nM
- Ki (Histamine H4 receptor [31]): > 10000 nM

Compound: c1ccc(-c2cccc(OCCCCCN3CCCCC3)c2)cc1
- Ki (Histamine H3 receptor [11]): 76 nM

Continued, in another order:

- Ki (Histamine H3 receptor [19]): 0.17 nM
Compound: C[C@@H]1CCCN1[C@H]1C[C@H](c2ccc(-c3ccc(C#N)cc3)cc2)C1

- Ki (Histamine H3 receptor [11]): 18 nM
Compound: c1ccc(-c2cccc(OCCCCCCN3CCCCCC3)c2)cc1

- Ki (Histamine H3 receptor [11]): 159 nM
Compound: CC1CCN(CCCCCCOc2cccc(-c3ccccc3)c2)CC1

- Ki (Histamine H3 receptor [11]): 266 nM
Compound: CC1CCN(CCCCCCOc2ccc(-c3ccccc3)cc2)CC1

- Ki (Histamine H4 receptor [21]): > 10000 nM
Compound: CN1C[C@H]2CCN(c3ccc(-c4ccc(-n5ncccc5=O)cc4)cc3)[C@H]2C1
- Ki [22]: 8830 nM

- Ki (Histamine H3 receptor [11]): 115 nM
Compound: c1ccc(-c2cccc(OCCCCCN3CCCCCC3)c2)cc1

- Ki (Histamine H3 receptor [11]): 157 nM
Compound: CC1CCN(CCCCCOc2cccc(-c3ccccc3)c2)CC1

- Ki (Histamine H3 receptor [11]): 92 nM
Compound: c1ccc(-c2ccc(OCCCCCCN3CCCCC3)cc2)cc1

- Ki (Histamine H3 receptor [11]): 122 nM
Compound: c1ccc(-c2cccc(OCCCCCCN3CCCCC3)c2)cc1

- Ki (Histamine H3 receptor [11]): 89 nM
Compound: CC1CCN(CCCCCOc2ccc(-c3ccccc3)cc2)CC1
